Measurements: patent publication US20240317744A1, “Bicyclic Ureas As Kinase Inhibitors” (Incyte Corporation, priority 2023, published 2024)

Key:
[1] = biological target: catalytic domain (JH1, amino acids 808-1132) of human JAK2 (Homo sapiens, UniProt O60674); assay: JAK2 HTRF Enzyme Activity Assay; type: biochemical; details: ATP 30 µM, 60 minutes at 25° C.; read-out: V617F ENZ 30 UM
[2] = biological target: T1, catalytic domain (JH1, amino acids 826-1132) of human JAK2 (Homo sapiens, UniProt O60674); assay: JAK2 LanthaScreen JH1 Binding Assay; details: JAK2 JH1 1.5 nM, 50 nM tracer, 2 hours at 25° C.; read-out: JH1 BIND
T1 construct: catalytic domain (JH1, amino acids 826-1132) of human JAK2; FLAG (N); biotin (biotinylated); purchased Carna Biosciences 08-445-20N; host or cells: baculovirus expression system
T1 sequence (O60674 826-1132): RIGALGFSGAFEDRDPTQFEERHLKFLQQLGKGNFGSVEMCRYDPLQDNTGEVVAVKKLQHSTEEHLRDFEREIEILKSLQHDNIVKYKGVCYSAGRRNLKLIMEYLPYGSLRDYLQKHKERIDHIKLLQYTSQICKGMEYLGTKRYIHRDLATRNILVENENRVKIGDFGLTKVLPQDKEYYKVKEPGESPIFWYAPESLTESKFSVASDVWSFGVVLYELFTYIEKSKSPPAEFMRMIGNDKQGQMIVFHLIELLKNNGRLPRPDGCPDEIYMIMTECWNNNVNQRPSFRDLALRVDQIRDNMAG
Method: Example A. JAK2 LanthaScreen JH1 Binding Assay
JAK2 JH1 binding assay utilizes catalytic domain (JH1, amino acids 826-1132) of human JAK2 expressed as N-terminal FLAG-tagged, biotinylated protein in a baculovirus expression system (Carna Biosciences, Product #08-445-20N). The assay was conducted in black 384-well polystyrene plates in a final reaction volume of 20 μL. JAK2 JH1 (1.5 nM) was incubated with compounds (100 nL serially diluted in DMSO) in the presence of 50 nM fluorescent JAK2-JH1 tracer and 0.5 nM Streptavidin-Tb cryptate (Cisbio Part #610SATLB) in assay buffer (50 mM Tris, pH=7.5, 10 mM MgCl2, 0.01% Brij-35, 0.1% BSA, 1 mM EGTA, 5% Glycerol and 5 mM DTT). Non-specific binding was accessed in the presence of 2 mM ATP. After incubation for 2 hours at 25° C., LanthaScreen signals were read on a PHERAstar FS plate reader (BMG LABTECH). Data was analyzed with IDBS XLfit and GraphPad Prism 5.0 software using a four parameter dose response curve to determine IC50 for each compound.

[3] = biological target: T2, pseudo-kinase domain (JH2, amino-acids 536-812) of human Wild Type JAK2 (Homo sapiens, UniProt O60674, F794H/W659A/W777A); assay: JAK2 LanthaScreen JH2-WT Binding Assay; details: JAK2 JH2-WT 0.145 nM, 50 nM tracer, 1 hour at 25° C.; read-out: JH2 BIND WT
T2 construct: pseudo-kinase domain (JH2, amino-acids 536-812 with 3 surface mutations W659A, W777A, F794H); His (C); purchased BPS Bioscience 79463; host or cells: baculovirus expression system
T2 sequence (O60674 536-812 W659A/W777A/F794H): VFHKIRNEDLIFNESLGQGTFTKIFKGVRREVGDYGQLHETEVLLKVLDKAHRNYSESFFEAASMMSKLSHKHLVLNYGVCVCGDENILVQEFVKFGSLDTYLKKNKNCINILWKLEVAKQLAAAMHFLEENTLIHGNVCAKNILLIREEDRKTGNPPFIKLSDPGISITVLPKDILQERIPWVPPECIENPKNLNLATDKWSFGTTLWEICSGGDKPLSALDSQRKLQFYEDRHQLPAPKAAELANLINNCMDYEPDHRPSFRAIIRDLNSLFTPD
Method: Example B. JAK2 LanthaScreen JH2-WT Binding Assay
JAK2 JH2-WT binding assay utilizes pseudo-kinase domain (JH2, amino-acids 536-812 with 3 surface mutations W659A, W777A, F794H) of human Wild Type JAK2 expressed as C-terminal His-Avi-tagged, biotinylated protein in a baculovirus expression system (BPS Bioscience, Catalog #79463). The assay was conducted in black 384-well polystyrene plates in a final reaction volume of 20 μL. JAK2 JH2-WT (0.145 nM) was incubated with compounds (100 nL serially diluted in DMSO) in the presence of 50 nM Fluorescent JAK2-JH2 Tracer (MedChem Express Catalog #HY-102055) and 0.25 nM Streptavidin-Tb cryptate (Cisbio Part #610SATLB) in assay buffer (50 mM Tris, pH=7.5, 10 mM MgCl2, 0.01% Brij-35, 0.1% BSA, 1 mM EGTA, 5% Glycerol and 5 mM DTT). Non-specific binding was accessed in the presence of 2 mM ATP. After incubation for 1 hour at 25° C., LanthaScreen signals were read on a PHERAstar FS plate reader (BMG LABTECH). Data was analyzed with IDBS XLfit and GraphPad Prism 5.0 software using a four parameter dose response curve to determine IC50 for each compound.

[4] = biological target: T3, pseudo-kinase domain (JH2, amino-acids 536-812) of human V617F mutant JAK2 (Homo sapiens, UniProt O60674, F794H/V617F/W659A/W777A); assay: JAK2 LanthaScreen JH2-V617F Binding Assay; details: JAK2 JH2-V617F 0.26 nM, 50 nM tracer, 1 hour at 25° C.; read-out: JH2 BIND V617F
T3 construct: pseudo-kinase domain (JH2, amino-acids 536-812 with 3 surface mutations W659A, W777A, F794H); His (C); purchased BPS Bioscience 79498; host or cells: baculovirus expression system
T3 sequence (O60674 536-812 V617F/W659A/W777A/F794H): as the sequence (O60674 536-812 W659A/W777A/F794H) above, with V82F counted along it
Procedure, shortened: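 Binding was measured as TR-FRET displacement of 50 nM tracer from 0.26 nM biotinylated His-Avi protein, incubated one hour at 25° C; IC50 from a four-parameter fit.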

Chain of catalytic domain (JH1, amino acids 808-1132) of human JAK2 (O60674 808-1132 limits assumed): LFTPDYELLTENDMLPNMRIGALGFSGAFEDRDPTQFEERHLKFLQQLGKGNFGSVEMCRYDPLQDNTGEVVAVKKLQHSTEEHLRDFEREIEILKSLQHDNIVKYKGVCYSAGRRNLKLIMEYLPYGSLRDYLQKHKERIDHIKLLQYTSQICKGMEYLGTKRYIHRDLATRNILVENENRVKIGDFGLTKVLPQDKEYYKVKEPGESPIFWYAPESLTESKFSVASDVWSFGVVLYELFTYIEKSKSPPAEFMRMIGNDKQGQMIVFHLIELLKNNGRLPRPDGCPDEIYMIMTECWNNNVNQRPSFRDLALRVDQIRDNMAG

SMILES	IC50 [1]	IC50 [2]	IC50 [3]	IC50 [4]
COC(=O)N[C@@H]1CC[C@@H](n2c(=O)n(C)c3cnc(Nc4cccc(-c5ccc6c(c5)OCCN6C)n4)cc32)C1 [Example 11, Methyl ((1R,3R)-3-(3-methyl-6-((6-(4-methyl-3,4-dihydro-2H-benzo[b][1,4]oxazin-7-yl)pyridin-2-yl)amino)-2-oxo-2,3-dihydro-1H-imidazo[4,5-c]pyridin-1-yl)cyclopentyl)carbamate]	> 1000 nM	> 1000 nM	≤ 10 nM	≤ 10 nM
[2H]C([2H])([2H])n1c(=O)n([C@@H]2CC[C@@H](NC(=O)OC)C2)c2cc(Nc3cc(C(=O)N4CC5CC4CO5)c4cccc(C(F)(F)F)c4n3)ncc21 (stereo partly drawn) [Example 12, Methyl ((1R,3R)-3-(6-((4-(2-oxa-5-azabicyclo[2.2.1]heptane-5-carbonyl)-8-(trifluoromethyl)quinolin-2-yl)amino)-3-(methyl-d3)-2-oxo-2,3-dihydro-1H-imidazo[4,5-c]pyridin-1-yl)cyclopentyl)carbamate]	> 1000 nM	> 1000 nM	≤ 10 nM	≤ 10 nM
[2H]C([2H])([2H])n1c(=O)n([C@@H]2CC[C@@H](NC(=O)OC)C2)c2cc(Nc3cc(C(=O)N4CCOC5CC54)c4cccc(C(F)(F)F)c4n3)ncc21 (stereo partly drawn) [Example 13, Methyl ((1R,3R)-3-(6-((4-(2-oxa-5-azabicyclo[4.1.0]heptane-5-carbonyl)-8-(trifluoromethyl)quinolin-2-yl)amino)-3-(methyl-d3)-2-oxo-2,3-dihydro-1H-imidazo[4,5-c]pyridin-1-yl)cyclopentyl)carbamate]	500 to 1000 nM	500 to 1000 nM	≤ 10 nM	≤ 10 nM
COC(=O)Nc1cc(Nc2cc3c(cn2)n(C)c(=O)n3[C@@H]2CC[C@@H](NC(=O)OC)C2)cc(-c2cn(C)nn2)c1 [Example 14, Methyl (3-((1-((1R,3R)-3-((methoxycarbonyl)amino)cyclopentyl)-3-methyl-2-oxo-2,3-dihydro-1H-imidazo[4,5-c]pyridin-6-yl)amino)-5-(1-methyl-1H-1,2,3-triazol-4-yl)phenyl)carbamate]	> 1000 nM	> 1000 nM	≤ 10 nM	10 to 100 nM
COC(=O)Nc1cc(Nc2cc3c(cn2)n(C)c(=O)n3[C@@H]2CC[C@@H](NC(=O)OC)C2)cc(C2CCN(C)CC2)c1 [Example 15, Methyl (3-((1-((1R,3R)-3-((methoxycarbonyl)amino)cyclopentyl)-3-methyl-2-oxo-2,3-dihydro-1H-imidazo[4,5-c]pyridin-6-yl)amino)-5-(1-methylpiperidin-4-yl)phenyl)carbamate]	> 1000 nM	> 1000 nM	≤ 10 nM	10 to 100 nM
[2H]C([2H])([2H])n1c(=O)n([C@@H]2CC[C@@H](NC(=O)OC)C2)c2cc(Nc3cc(C(=O)N4CCCC(F)(F)C4)c4cccc(C(F)(F)F)c4n3)ncc21 [Example 16, Methyl ((1R,3R)-3-(6-((4-(3,3-difluoropiperidine-1-carbonyl)-8-(trifluoromethyl)quinolin-2-yl)amino)-3-(methyl-d3)-2-oxo-2,3-dihydro-1H-imidazo[4,5-c]pyridin-1-yl)cyclopentyl)carbamate]	> 1000 nM	> 1000 nM	≤ 10 nM	≤ 10 nM
COC(=O)N[C@@H]1CC[C@@H](n2c(=O)n(C)c3cnc(Nc4cc(NC(=O)[C@H]5CC5(F)F)cc(C5CCOCC5)c4)cc32)C1 [Example 17, Methyl ((1R,3R)-3-(6-((3-((R)-2,2-difluorocyclopropane-1-carboxamido)-5-(tetrahydro-2H-pyran-4-yl)phenyl)amino)-3-methyl-2-oxo-2,3-dihydro-1H-imidazo[4,5-c]pyridin-1-yl)cyclopentyl)carbamate]	> 1000 nM	> 1000 nM	≤ 10 nM	≤ 10 nM
[2H]C([2H])([2H])n1c(=O)n([C@@H]2CC[C@@H](NC(=O)OC)C2)c2cc(Nc3ccc4cc(NC5CCC(F)(F)C5)cc(C(F)(F)F)c4n3)ncc21 (stereo partly drawn) [Example 18, Methyl ((1R,3R)-3-(6-((6-((3,3-difluorocyclopentyl)amino)-8-(trifluoromethyl)quinolin-2-yl)amino)-3-(methyl-d3)-2-oxo-2,3-dihydro-1H-imidazo[4,5-c]pyridin-1-yl)cyclopentyl)carbamate]	> 1000 nM	> 1000 nM	≤ 10 nM	≤ 10 nM
COC(=O)N[C@@H]1CC[C@@H](n2c(=O)n(C)c3cnc(Nc4cc(NC(=O)C5CCC5)cc(C5CCOCC5)c4)cc32)C1 [Example 19, Methyl ((1R,3R)-3-(6-((3-(cyclobutanecarboxamido)-5-(tetrahydro-2H-pyran-4-yl)phenyl)amino)-3-methyl-2-oxo-2,3-dihydro-1H-imidazo[4,5-c]pyridin-1-yl)cyclopentyl)carbamate]	> 1000 nM	> 1000 nM	≤ 10 nM	≤ 10 nM
[2H]C([2H])([2H])n1c(=O)n([C@@H]2CC[C@@H](NC(=O)OC)C2)c2cc(Nc3ccc4cc(-c5cnn(C)c5)cc(C(F)(F)F)c4n3)ncc21 [Example 20, Methyl ((1R,3R)-3-(3-(methyl-d3)-6-((6-(1-methyl-1H-pyrazol-4-yl)-8-(trifluoromethyl)quinolin-2-yl)amino)-2-oxo-2,3-dihydro-1H-imidazo[4,5-c]pyridin-1-yl)cyclopentyl)carbamate]	> 1000 nM	> 1000 nM	≤ 10 nM	≤ 10 nM
COC(=O)Nc1cc(Nc2cc3c(cn2)n(C)c(=O)n3[C@@H]2CC[C@@H](NC(=O)OC)C2)cc(C2CCCOC2)c1 (stereo partly drawn) [Example 21, Methyl (3-((1-((1R,3R)-3-((methoxycarbonyl)amino)cyclopentyl)-3-methyl-2-oxo-2,3-dihydro-1H-imidazo[4,5-c]pyridin-6-yl)amino)-5-(tetrahydro-2H-pyran-3-yl)phenyl)carbamate]	> 1000 nM	> 1000 nM	≤ 10 nM	≤ 10 nM
COC(=O)N[C@@H]1CC[C@@H](n2c(=O)n(C)c3cnc(Nc4cccc(OC5CCC(C#N)CC5)n4)cc32)C1 (stereo partly drawn) [Example 22, Methyl ((1R,3R)-3-(6-((6-((4-cyanocyclohexyl)oxy)pyridin-2-yl)amino)-3-methyl-2-oxo-2,3-dihydro-1H-imidazo[4,5-c]pyridin-1-yl)cyclopentyl)carbamate]	> 1000 nM	> 1000 nM	10 to 100 nM	10 to 100 nM
COC(=O)N[C@@H]1CC[C@@H](n2c(=O)n(C)c3cnc(Nc4cccc(Oc5ccc6ncccc6c5)n4)cc32)C1 [Example 23, Methyl ((1R,3R)-3-(3-methyl-2-oxo-6-((6-(quinolin-6-yloxy)pyridin-2-yl)amino)-2,3-dihydro-1H-imidazo[4,5-c]pyridin-1-yl)cyclopentyl)carbamate]	> 1000 nM	> 1000 nM	10 to 100 nM	10 to 100 nM
